In ChEMBL document CHEMBL1155439, “Transient receptor potential ankyrin 1 (TRPA1) channel as emerging target for novel analgesics and anti-inflammatory agents” (J Med Chem, 2010):

Assays:
[1] = molecular target: T1, Transient receptor potential cation channel subfamily A member 1 (Mus musculus, UniProt Q8BLA8); assay: Antagonist activity at mouse TRPA1 channel expressed in CHO cells assessed as inhibition of cinnamaldehyde-induced intracellular calcium influx
[2] = molecular target: T2, Transient receptor potential cation channel subfamily A member 1 (Homo sapiens, UniProt O75762); assay: Antagonist activity at human TRPA1 channel expressed in CHO cells assessed as inhibition of cinnamaldehyde-induced intracellular calcium influx; assay type: functional, cell-based
[3] = molecular target: T1, Transient receptor potential cation channel subfamily A member 1; assay: Activation of mouse TRPA1 channel
[4] = molecular target: T2, Transient receptor potential cation channel subfamily A member 1; assay: Antagonist activity at human TRPA1 channel assessed as inhibition of 4-hydroxy-2-nonenal-induced response; assay type: functional
[5] = molecular target: T2, Transient receptor potential cation channel subfamily A member 1; assay: Antagonist activity at human TRPA1 channel assessed as inhibition of allyl isothiocyanate-induced intracellular calcium influx; assay type: functional, cell-based
[6] = molecular target: T2, Transient receptor potential cation channel subfamily A member 1; assay: Antagonist activity at human TRPA1 channel assessed as inhibition of formalin-induced intracellular calcium influx; assay type: functional, cell-based
[7] = molecular target: T2, Transient receptor potential cation channel subfamily A member 1; assay: Antagonist activity at human TRPA1 channel expressed in HEK293 cells assessed as inhibition of cinnamaldehyde-induced intracellular calcium influx by FLIPR; assay type: functional, cell-based
[8] = molecular target: T3, Transient receptor potential cation channel subfamily V member 3 (Homo sapiens, UniProt Q8NET8); assay: Antagonist activity at human TRPV3 channel; assay type: functional
T3 sequence (Q8NET8 whole entry): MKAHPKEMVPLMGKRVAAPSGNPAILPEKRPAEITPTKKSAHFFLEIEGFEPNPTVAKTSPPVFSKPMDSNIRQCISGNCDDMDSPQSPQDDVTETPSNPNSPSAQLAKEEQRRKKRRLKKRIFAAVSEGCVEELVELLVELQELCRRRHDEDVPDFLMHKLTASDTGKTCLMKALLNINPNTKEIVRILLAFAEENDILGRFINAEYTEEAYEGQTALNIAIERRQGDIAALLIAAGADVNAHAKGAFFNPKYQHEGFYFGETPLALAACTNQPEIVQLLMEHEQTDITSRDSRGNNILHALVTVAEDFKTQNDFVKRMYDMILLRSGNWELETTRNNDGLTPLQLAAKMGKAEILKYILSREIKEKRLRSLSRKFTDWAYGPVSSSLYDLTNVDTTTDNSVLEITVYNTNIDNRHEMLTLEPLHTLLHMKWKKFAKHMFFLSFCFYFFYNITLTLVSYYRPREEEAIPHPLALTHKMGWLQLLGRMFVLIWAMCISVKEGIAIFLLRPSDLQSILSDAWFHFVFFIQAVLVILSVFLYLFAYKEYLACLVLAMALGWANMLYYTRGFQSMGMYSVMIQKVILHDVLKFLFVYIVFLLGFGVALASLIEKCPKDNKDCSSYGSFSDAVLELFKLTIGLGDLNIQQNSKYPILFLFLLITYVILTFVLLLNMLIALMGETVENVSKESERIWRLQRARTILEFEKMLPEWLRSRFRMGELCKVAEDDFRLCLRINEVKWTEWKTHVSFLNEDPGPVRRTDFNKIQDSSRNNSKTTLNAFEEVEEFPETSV

[9] = molecular target: T2, Transient receptor potential cation channel subfamily A member 1; assay: Antagonist activity at human TRPA1 channel assessed as inhibition of nifedipine-induced intracellular calcium influx; assay type: functional, cell-based
[10] = molecular target: Transient receptor potential cation channel subfamily V member 4 (Homo sapiens, UniProt Q9HBA0); assay: Antagonist activity at human TRPV4 channel; assay type: functional
[11] = molecular target: Transient receptor potential cation channel subfamily M member 8 (Homo sapiens, UniProt Q7Z2W7); assay: Antagonist activity at human TRPM8 channel; assay type: functional
[12] = molecular target: T2, Transient receptor potential cation channel subfamily A member 1; assay: Antagonist activity at human TRPA1 channel expressed in HEK293 cells assessed as inhibition of allyl isothiocyanate-induced intracellular calcium influx by FLIPR; assay type: functional, cell-based
[13] = molecular target: Transient receptor potential cation channel subfamily V member 1 (Homo sapiens, UniProt Q8NER1); assay: Antagonist activity at human TRPV1 channel; assay type: functional
Sequence of Transient receptor potential cation channel subfamily V member 1 (Q8NER1 whole entry): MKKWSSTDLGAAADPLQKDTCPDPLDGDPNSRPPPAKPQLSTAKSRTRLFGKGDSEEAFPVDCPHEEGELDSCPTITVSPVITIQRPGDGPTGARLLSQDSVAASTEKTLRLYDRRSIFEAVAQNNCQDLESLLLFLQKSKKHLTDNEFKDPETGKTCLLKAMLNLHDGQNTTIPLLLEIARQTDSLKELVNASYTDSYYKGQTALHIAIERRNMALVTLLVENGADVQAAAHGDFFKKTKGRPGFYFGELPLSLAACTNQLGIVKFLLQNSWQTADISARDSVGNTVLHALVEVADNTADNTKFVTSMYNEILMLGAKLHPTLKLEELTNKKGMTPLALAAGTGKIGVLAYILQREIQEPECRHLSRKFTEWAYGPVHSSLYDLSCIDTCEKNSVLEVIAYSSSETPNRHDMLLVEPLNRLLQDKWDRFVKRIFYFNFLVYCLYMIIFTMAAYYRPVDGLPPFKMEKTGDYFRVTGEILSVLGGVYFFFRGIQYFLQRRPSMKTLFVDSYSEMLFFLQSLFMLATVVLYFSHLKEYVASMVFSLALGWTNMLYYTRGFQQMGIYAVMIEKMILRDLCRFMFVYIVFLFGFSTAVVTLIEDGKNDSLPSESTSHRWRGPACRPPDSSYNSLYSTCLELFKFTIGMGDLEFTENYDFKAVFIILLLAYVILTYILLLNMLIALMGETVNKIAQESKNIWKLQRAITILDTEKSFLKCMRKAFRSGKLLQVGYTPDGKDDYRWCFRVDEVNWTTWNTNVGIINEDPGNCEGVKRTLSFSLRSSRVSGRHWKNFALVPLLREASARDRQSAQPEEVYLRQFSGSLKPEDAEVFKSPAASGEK

T1 sequence (Q8BLA8 whole entry): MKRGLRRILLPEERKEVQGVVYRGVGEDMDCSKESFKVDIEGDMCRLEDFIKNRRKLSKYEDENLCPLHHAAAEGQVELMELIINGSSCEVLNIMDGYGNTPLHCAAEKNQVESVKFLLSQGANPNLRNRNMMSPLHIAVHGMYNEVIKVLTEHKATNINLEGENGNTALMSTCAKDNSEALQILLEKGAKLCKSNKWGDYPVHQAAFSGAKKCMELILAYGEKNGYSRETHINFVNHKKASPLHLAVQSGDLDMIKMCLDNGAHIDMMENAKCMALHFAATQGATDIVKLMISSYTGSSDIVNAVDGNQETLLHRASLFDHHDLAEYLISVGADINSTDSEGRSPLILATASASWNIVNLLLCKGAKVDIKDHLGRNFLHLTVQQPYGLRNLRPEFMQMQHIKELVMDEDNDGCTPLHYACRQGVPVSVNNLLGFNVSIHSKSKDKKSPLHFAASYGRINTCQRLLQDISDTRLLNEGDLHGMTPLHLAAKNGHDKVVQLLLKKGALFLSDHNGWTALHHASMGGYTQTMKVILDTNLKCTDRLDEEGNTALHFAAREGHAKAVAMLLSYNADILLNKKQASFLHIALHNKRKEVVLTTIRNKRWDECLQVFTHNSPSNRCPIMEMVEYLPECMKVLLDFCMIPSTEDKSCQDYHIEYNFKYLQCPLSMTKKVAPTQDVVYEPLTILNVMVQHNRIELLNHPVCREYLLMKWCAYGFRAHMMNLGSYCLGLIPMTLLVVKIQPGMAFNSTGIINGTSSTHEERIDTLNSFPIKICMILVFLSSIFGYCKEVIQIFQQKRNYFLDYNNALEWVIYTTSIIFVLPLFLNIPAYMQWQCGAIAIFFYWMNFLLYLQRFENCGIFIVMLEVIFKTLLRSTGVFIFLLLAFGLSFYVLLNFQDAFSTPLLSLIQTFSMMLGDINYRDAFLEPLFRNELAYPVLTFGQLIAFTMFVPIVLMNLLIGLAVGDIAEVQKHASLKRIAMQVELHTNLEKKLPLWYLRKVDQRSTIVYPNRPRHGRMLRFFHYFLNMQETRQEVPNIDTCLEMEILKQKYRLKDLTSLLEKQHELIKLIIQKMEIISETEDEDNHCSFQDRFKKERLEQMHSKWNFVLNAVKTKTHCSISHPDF
T2 sequence (O75762 whole entry): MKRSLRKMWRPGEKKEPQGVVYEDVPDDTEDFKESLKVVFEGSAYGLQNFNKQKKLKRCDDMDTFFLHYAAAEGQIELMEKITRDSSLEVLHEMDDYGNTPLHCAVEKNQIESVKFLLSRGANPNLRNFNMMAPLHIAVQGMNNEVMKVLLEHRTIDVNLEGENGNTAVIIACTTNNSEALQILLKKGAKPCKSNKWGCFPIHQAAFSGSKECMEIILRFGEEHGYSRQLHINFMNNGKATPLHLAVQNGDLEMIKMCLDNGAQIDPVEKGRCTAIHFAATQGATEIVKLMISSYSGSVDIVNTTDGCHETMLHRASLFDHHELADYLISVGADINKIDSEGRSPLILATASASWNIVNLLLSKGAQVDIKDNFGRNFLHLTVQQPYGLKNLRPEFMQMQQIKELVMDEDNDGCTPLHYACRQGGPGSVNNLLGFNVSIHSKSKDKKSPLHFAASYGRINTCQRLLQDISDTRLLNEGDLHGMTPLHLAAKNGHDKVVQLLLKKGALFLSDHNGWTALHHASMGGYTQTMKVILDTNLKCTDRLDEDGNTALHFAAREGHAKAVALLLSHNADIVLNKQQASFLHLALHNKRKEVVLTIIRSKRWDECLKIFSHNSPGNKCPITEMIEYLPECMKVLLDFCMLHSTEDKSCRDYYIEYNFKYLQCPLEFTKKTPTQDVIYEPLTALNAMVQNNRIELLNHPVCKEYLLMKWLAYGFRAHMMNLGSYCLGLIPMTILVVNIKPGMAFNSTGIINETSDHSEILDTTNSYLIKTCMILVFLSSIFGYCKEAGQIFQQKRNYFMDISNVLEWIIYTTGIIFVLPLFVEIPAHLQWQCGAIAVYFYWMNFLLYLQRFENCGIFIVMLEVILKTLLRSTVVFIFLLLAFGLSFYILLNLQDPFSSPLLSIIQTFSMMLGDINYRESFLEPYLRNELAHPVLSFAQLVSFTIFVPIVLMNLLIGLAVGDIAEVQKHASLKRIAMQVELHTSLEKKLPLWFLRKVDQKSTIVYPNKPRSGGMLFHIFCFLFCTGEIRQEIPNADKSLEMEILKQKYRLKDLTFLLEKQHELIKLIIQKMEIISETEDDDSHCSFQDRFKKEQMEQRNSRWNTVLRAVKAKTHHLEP
Sequence of Transient receptor potential cation channel subfamily M member 8 (Q7Z2W7 whole entry): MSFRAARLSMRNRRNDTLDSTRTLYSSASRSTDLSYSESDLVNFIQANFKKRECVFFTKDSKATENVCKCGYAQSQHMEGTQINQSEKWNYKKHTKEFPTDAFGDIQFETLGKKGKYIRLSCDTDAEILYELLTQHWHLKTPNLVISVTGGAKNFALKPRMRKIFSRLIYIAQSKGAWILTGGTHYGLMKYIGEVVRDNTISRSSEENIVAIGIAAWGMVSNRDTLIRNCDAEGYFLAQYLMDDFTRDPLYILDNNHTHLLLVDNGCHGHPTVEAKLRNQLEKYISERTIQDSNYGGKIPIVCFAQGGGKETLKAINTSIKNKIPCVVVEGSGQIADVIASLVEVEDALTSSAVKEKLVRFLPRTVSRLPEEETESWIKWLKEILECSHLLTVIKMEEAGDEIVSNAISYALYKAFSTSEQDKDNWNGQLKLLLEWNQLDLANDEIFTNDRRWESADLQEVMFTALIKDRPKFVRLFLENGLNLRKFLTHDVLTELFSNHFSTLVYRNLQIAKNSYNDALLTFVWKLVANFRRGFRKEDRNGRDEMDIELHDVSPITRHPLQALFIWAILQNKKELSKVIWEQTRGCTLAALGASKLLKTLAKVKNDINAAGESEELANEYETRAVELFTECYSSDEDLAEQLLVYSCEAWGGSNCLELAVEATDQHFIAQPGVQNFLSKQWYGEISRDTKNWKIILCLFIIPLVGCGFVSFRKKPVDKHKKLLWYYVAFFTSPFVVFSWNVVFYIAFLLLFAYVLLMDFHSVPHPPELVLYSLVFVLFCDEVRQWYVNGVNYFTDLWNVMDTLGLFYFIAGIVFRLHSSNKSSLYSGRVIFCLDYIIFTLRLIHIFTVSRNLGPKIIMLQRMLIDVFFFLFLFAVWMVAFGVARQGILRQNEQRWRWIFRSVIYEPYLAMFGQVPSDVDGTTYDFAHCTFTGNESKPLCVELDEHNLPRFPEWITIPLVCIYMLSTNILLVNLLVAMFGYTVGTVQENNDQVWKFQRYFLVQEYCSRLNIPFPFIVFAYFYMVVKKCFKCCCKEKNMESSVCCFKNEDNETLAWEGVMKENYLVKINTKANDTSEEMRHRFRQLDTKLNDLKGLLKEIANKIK
Sequence of Transient receptor potential cation channel subfamily V member 4 (Q9HBA0 whole entry): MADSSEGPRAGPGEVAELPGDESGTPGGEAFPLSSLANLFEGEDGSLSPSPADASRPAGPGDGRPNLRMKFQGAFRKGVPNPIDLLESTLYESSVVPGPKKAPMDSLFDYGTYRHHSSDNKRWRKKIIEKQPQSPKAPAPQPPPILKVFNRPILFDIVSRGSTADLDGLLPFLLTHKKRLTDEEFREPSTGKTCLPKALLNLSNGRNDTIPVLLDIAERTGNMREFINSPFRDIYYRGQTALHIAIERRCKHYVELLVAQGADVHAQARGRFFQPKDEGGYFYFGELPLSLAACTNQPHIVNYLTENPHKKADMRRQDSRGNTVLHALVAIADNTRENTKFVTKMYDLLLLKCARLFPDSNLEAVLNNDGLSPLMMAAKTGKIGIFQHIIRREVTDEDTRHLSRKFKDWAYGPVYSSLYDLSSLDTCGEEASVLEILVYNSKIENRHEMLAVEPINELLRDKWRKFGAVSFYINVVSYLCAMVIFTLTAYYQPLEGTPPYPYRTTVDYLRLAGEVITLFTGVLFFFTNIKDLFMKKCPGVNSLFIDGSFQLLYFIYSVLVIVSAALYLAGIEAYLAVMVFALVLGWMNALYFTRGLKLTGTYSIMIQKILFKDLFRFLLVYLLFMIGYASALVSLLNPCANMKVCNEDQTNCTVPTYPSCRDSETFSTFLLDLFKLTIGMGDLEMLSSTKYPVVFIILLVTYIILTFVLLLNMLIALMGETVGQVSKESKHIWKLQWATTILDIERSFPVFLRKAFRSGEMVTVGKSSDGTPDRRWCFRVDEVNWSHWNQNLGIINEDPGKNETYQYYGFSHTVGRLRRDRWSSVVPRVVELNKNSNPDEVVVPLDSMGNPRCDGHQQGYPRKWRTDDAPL

CC(=C\c1ccc(Cl)cc1)/C(C)=N/O [AP18 5]
IC50 [1]: 4.5 µM | IC50 [2]: 3.1 µM

CCC(C)c1ccc(NC(=O)Cn2cnc3c2c(=O)n(C)c(=O)n3C)cc1 (stereo not given)
EC50 [3]: 2.5 mM | IC50 [4]: 18.7 µM | IC50 [5]: 14.3 µM

CC(C)c1ccc(NC(=O)Cn2cnc3c2c(=O)n(C)c(=O)n3C)cc1
EC50 [3]: 1 mM | IC50 [6]: 5.3 µM | IC50 [7]: 4.9 µM | IC50 [8]: > 10 µM | IC50 [5]: 6.2 µM | IC50 [9]: 1800 nM | IC50 [10]: > 10 µM | IC50 [11]: > 30 µM | IC50 [12]: 7.5 µM | IC50 [13]: > 20 µM
